Where a name gives a salt, the structure may show the parent alone.
Tests used:
[1] = test system: SK-MEL-28 cells; assay: Cytotoxicity in low glucose condition (MTT); assay type: cell-based; settings: Homo sapiens, SK-MEL-28, 0.75 mM glucose, 72 hours, read-out: SK-MEL-28 0.75 mM glucose Cell viability (IC50 ia)
Source text: The inhibition of oxidative phosphorylation (OXPHOS) is not cytotoxic to cells in normal glucose condition, because it is postulated that normal cells have compensatory mechanism under energy stress conditions such as low glucose. However OXPHOS inhibitors show cytotoxic effect on cells in the glucose deprived condition (BirsoyK, 2014). The glucose deprived condition is observed in tumor microenvironment potentially due to poor angiogenesis. Therefore the OXPHOS inhibitors may show anti-cancer effect on cancer cells in low glucose condition that may depict tumor microenvironment.
The compounds of the present invention were evaluated their cytotoxicity in SK-MEL-28, melanoma with 0.75 mM glucose supplement. The cytotoxic effect is compared with the cytotoxicity caused by phenformin. The cytotoxicity in low glucose condition is correlated with inhibition of oxygen consumption in mitochondria.
SK-MEL-28 (HTB-72) is a melanoma cell line obtained from ATCC (MA) and cultured in RPMI 1640 media (Lifetechnologies, CA) with supplement of 10% FBS and antibiotic-antimycotic (Lifetechnologies, CA). RPMI 1640 (-Glucose) was used to prepare low glucose media and 0.75 mM glucose was supplied with D-(+)-glucose solution from Sigma. SK-MEL-28 cells were separated from culture plate using 0.5% trypsin-EDTA and 5,000 cells were plated in 96-well plate with low glucose media. After incubation at 37° C. for 24 hour, 5% CO2, the cells were treated with the compounds of present invention in FBS-free media for 72 hours. The cytotoxicity was measured by the MTT (AMRESCO, OH) assay. NADH-dependent cellular oxidoreductase reduces MTT to its insoluble […] with purple color. The enzyme depends on cell number or energy state of cells. 10 μl of 5 mg/ml MIT solution was added to each well of the assay plate and skip the well for blank. The plate was incubated at 37° C. and 5% CO2 for 2 hours. The MTT solution was removed from each well and 100 μl of DMSO was added. The plate was read by VICTOR X3 Multilabel Counter at the wavelength of 550 nm. In Table 2, the levels of IC50 are evaluated by the following criteria.

[2] = test system: SK-MEL-239 tumor cells; assay: In vivo xenograft model using SK-MEL-239 cell; design: species or system mice
Method: The compounds of the present invention were evaluated in vivo using xenograft human cancer model in mice. The compounds of invention were administrated orally or interperitoneal injection. Tumor cell lines were cultured in vitro as monolayer culture. Using female BALB/c nude mice with immune system compromised, each mouse was inoculated subcutaneously at the right flank with tumor cells for tumor development. The treatment was started when the tumor size reaches approximately 100 mm^3
The SK-MEL-239 tumor cell line was maintained in vitro as monolayer in RPMII 640 medium supplemented with 10% heat inactivated fetal bovine serum, 100 U/ml penicillin and 100 μg/ml streptomycin, and L-glutamine (2 mM) at 37° C. in an atmosphere of 5% CO2 in air. The tumor cells were routinely subcultured twice weekly with 0.5% trypsin-EDTA treatment. The cells growing in an exponential growth phase were harvested and counted for tumor cell inoculation.
Female BALB/c nude mice aged 6-8 weeks and weighing approximately 18-22 g were purchased from Vital River. Each mouse was inoculated subcutaneously at the right flank with SK-MEL-239 tumor cells (1×10^7) in 0.1 ml of PBS for tumor development. The treatment was started, when the tumor size reaches approximately 100 mm^3. 100 mg/kg of Phenformin and 15 mg/kg of Vemurafenib were administered via oral gavage twice daily and 100 mg/kg HLPOI (HL176001001) was administered once daily for 21 days. Tumor volumes were measured twice a week in two dimensions using a caliper, and the volume was expressed in mm^3 using the formula: V=0.5×a×b^2, where a and b were the long and short diameters of the tumor, respectively. The T/C value (in percentage) was an indication of antitumor effect. T and C were the mean volumes of the treated and control groups, respectively.

[3] = Dosing 100 mg/kg, once daily, Day 28

## N=C(N)NC(=N)NCCc1ccc(Cl)c(Cl)c1 [Example 1, N-1-(3,4-dichloro)phenethylbiguanide hydrochloride]
[1]
  IC50: 5 to 10 µM
[2]; 100 mg/kg, Phenformin twice daily, Example 1 once daily
  tumor volume compared to the control group: significant reduction of tumor volume
[2]; [3]
  T/C (Day 28, %): 65.4%
  Tumor Volume (Day 28, mm^3, a): 1,869 ± 82 mm^3
[2]; in combination with 15 mg/kg of Vemurafenib
  tumor volume compared to the single administration of Vemurafenib: reduced the tumor volume
